Experimental data: the supplement of paper PMC10307832

Tests used:
CUDC-101 + Tozasertib = compound: C#Cc1cccc(Nc2ncnc3cc(OC)c(OCCCCCCC(=O)NO)cc23)c1 [CUDC-101] + Cc1cc(Nc2cc(N3CCN(C)CC3)nc(Sc3ccc(NC(=O)C4CC4)cc3)n2)n[nH]1 [Tozasertib] (partner 0.1 µM); assay: relative viability (nuclei count vs DMSO), 5 days (fraction); higher = more cells survive
Procedure, shortened: (§1)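 Five library-drug doses in √10 steps were combined with a fixed anchor-drug dose, or a single drug was given alone, by pin tool to lung cancer cell lines in 1536-well plates the day after seeding. Nuclei were stained and counted after 5 days. Relative viability is the nuclei count in treated wells over that in vehicle wells, taken as the median of duplicate plates.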

CUDC-101 + Decitabine = compound: C#Cc1cccc(Nc2ncnc3cc(OC)c(OCCCCCCC(=O)NO)cc23)c1 [CUDC-101] + Nc1ncn([C@H]2C[C@H](O)[C@@H](CO)O2)c(=O)n1 [Decitabine] (partner 2 µM); assay: as above
Procedure, shortened: as §1

UMC-11
relative viability (CUDC-101 + Tozasertib; first compound 0.01 µM): 0.193 | relative viability (CUDC-101 + Tozasertib; first compound 0.03162 µM): 0.176 | relative viability (CUDC-101 + Tozasertib; first compound 0.1 µM): 0.193 | relative viability (CUDC-101 + Tozasertib; first compound 0.3162 µM): 0.155 | relative viability (CUDC-101 + Tozasertib; first compound 1 µM): 0.133 | relative viability (CUDC-101 + Decitabine; first compound 0.01 µM): 0.761 | relative viability (CUDC-101 + Decitabine; first compound 0.03162 µM): 0.477 | relative viability (CUDC-101 + Decitabine; first compound 0.1 µM): 0.601 | relative viability (CUDC-101 + Decitabine; first compound 0.3162 µM): 0.462 | relative viability (CUDC-101 + Decitabine; first compound 1 µM): 0.221
